Assay results published in ChEMBL document CHEMBL3885861, “Open TG-GATES”.

Species on record: Rattus norvegicus
Assay: Open TG-GATES - Regimen: Single
Assay type: toxicity, organism-based, Sprague-Dawley
Set-up: regimen Single, gender Male, age 6 weeks
Settings: in vivo, po, 300 mg/kg, route gavage, dose level Low; for APTT / Bas / Eos / Fbg / Hb / Ht / Lym / MCH / MCHC / MCV / Mono / Neu / PT / Plat / RBC / Ret / WBC: tissue Blood; for KIDNEY_L / KIDNEY_R / KIDNEY_TOTAL: tissue Kidney; for LIVER: tissue Liver; for A/G / ALP / ALT / AST / BUN / CRE / Ca / Cl / DBIL / GLC / IP / K / LDH / Na / PL / RALB / TBIL / TC / TG / TP / gamma-GTP: tissue Plasma

Compound: CCOc1ccc(NC(=O)CC(C)O)cc1 (configuration not stated) [BUCETIN]
- TERMINAL_BW (3 h): 213.6 g
- APTT (3 h): 15.8 s
- Bas (3 h): 0%
- Eos (3 h): 0.8%
- Fbg (3 h): 292.8 mg/dL
- Hb (3 h): 13 g/dL
- Ht (3 h): 39%
- Lym (3 h): 77.8%
- MCH (3 h): 21.4 pg
- MCHC (3 h): 33.3%
- MCV (3 h): 64.3 fL
- Mono (3 h): 2.6%
- Neu (3 h): 18.2%
- PT (3 h): 13.7 s
- Plat (3 h): 117.1 x10_4/uL
- RBC (3 h): 608.2 x10_4/ul
- Ret (3 h): 8.5%
- WBC (3 h): 68.4 x10_2/uL
- KIDNEY_L (3 h): 1 g
- KIDNEY_R (3 h): 1 g
- KIDNEY_TOTAL (3 h): 1.9 g
- LIVER (3 h): 9.6 g
- A/G (3 h): 0.9
- ALP (3 h): 1395.4 IU/L
- ALT (3 h): 33.2 IU/L
- AST (3 h): 66.8 IU/L
- BUN (3 h): 9.4 mg/dL
- CRE (3 h): 0.2 mg/dL
- Ca (3 h): 10.7 mg/dL
- Cl (3 h): 104.8 meq/L
- DBIL (3 h): 0.026 mg/dL
- GLC (3 h): 181 mg/dL
- IP (3 h): 9.1 mg/dL
- K (3 h): 4.2 meq/L
- LDH (3 h): 73.8 IU/L
- Na (3 h): 140.6 meq/L
- PL (3 h): 155.2 mg/dL
- RALB (3 h): 2.5 g/dL
- TBIL (3 h): 0.052 mg/dL
- TC (3 h): 84.4 mg/dL
- TG (3 h): 78 mg/dL
- TP (3 h): 5.4 g/dL
- gamma-GTP (3 h): 1.2 IU/L
- TERMINAL_BW (6 h): 209.9 g
- APTT (6 h): 15.2 s
- Bas (6 h): 0%
- Eos (6 h): 1%
- Fbg (6 h): 292.4 mg/dL
- Hb (6 h): 13.4 g/dL
- Ht (6 h): 40.3%
- Lym (6 h): 77%
- MCH (6 h): 20.7 pg
- MCHC (6 h): 33.4%
- MCV (6 h): 62 fL
- Mono (6 h): 2.6%
- Neu (6 h): 19%
- PT (6 h): 13.6 s
- Plat (6 h): 112.6 x10_4/uL
- RBC (6 h): 649.8 x10_4/ul
- Ret (6 h): 7.8%
- WBC (6 h): 80.5 x10_2/uL
- KIDNEY_L (6 h): 0.9 g
- KIDNEY_R (6 h): 0.9 g
- KIDNEY_TOTAL (6 h): 1.8 g
- LIVER (6 h): 8.7 g
- A/G (6 h): 0.9
- ALP (6 h): 1309.2 IU/L
- ALT (6 h): 29.8 IU/L
- AST (6 h): 65.8 IU/L
- BUN (6 h): 8 mg/dL
- CRE (6 h): 0.2 mg/dL
- Ca (6 h): 10.6 mg/dL
- Cl (6 h): 105 meq/L
- DBIL (6 h): 0.026 mg/dL
- GLC (6 h): 186 mg/dL
- IP (6 h): 10.5 mg/dL
- K (6 h): 4.3 meq/L
- LDH (6 h): 74.4 IU/L
- Na (6 h): 141.8 meq/L
- PL (6 h): 139.8 mg/dL
- RALB (6 h): 2.5 g/dL
- TBIL (6 h): 0.058 mg/dL
- TC (6 h): 77 mg/dL
- TG (6 h): 44.8 mg/dL
- TP (6 h): 5.3 g/dL
- gamma-GTP (6 h): 1.2 IU/L
- TERMINAL_BW (9 h): 206.6 g
- APTT (9 h): 18.5 s
- Bas (9 h): 0%
- Eos (9 h): 1%
- Fbg (9 h): 291.8 mg/dL
- Hb (9 h): 13.1 g/dL
- Ht (9 h): 39.5%
- Lym (9 h): 77.2%
- MCH (9 h): 20.9 pg
- MCHC (9 h): 33.3%
- MCV (9 h): 62.8 fL
- Mono (9 h): 2%
- Neu (9 h): 19.6%
- PT (9 h): 14.3 s
- Plat (9 h): 110.2 x10_4/uL
- RBC (9 h): 628.8 x10_4/ul
- Ret (9 h): 8.1%
- WBC (9 h): 59.9 x10_2/uL
- KIDNEY_L (9 h): 0.9 g
- KIDNEY_R (9 h): 0.9 g
- KIDNEY_TOTAL (9 h): 1.9 g
- LIVER (9 h): 8.1 g
- A/G (9 h): 0.9
- ALP (9 h): 1396.8 IU/L
- ALT (9 h): 31 IU/L
- AST (9 h): 68.4 IU/L
- BUN (9 h): 8.4 mg/dL
- CRE (9 h): 0.2 mg/dL
- Ca (9 h): 10.4 mg/dL
- Cl (9 h): 107.2 meq/L
- DBIL (9 h): 0.028 mg/dL
- GLC (9 h): 182 mg/dL
- IP (9 h): 10.3 mg/dL
- K (9 h): 4.3 meq/L
- LDH (9 h): 68.6 IU/L
- Na (9 h): 142.8 meq/L
- PL (9 h): 136.8 mg/dL
- RALB (9 h): 2.5 g/dL
- TBIL (9 h): 0.062 mg/dL
- TC (9 h): 77.2 mg/dL
- TG (9 h): 29.2 mg/dL
- TP (9 h): 5.4 g/dL
- gamma-GTP (9 h): 1.2 IU/L
- TERMINAL_BW (24 h): 223.3 g
- APTT (24 h): 19.1 s
- Bas (24 h): 0%
- Eos (24 h): 1%
- Fbg (24 h): 303 mg/dL
- Hb (24 h): 13.3 g/dL
- Ht (24 h): 40%
- Lym (24 h): 76.8%
- MCH (24 h): 20.9 pg
- MCHC (24 h): 33.3%
- MCV (24 h): 62.9 fL
- Mono (24 h): 3.4%
- Neu (24 h): 18.4%
- PT (24 h): 14.2 s
- Plat (24 h): 121.5 x10_4/uL
- RBC (24 h): 636.4 x10_4/ul
- Ret (24 h): 7.7%
- WBC (24 h): 109.1 x10_2/uL
- KIDNEY_L (24 h): 1 g
- KIDNEY_R (24 h): 1 g
- KIDNEY_TOTAL (24 h): 1.9 g
- LIVER (24 h): 10.8 g
- A/G (24 h): 0.9
- ALP (24 h): 1683.6 IU/L
- ALT (24 h): 38.8 IU/L
- AST (24 h): 67 IU/L
- BUN (24 h): 15.4 mg/dL
- CRE (24 h): 0.2 mg/dL
- Ca (24 h): 11.1 mg/dL
- Cl (24 h): 104.8 meq/L
- DBIL (24 h): 0.02 mg/dL
- GLC (24 h): 176.6 mg/dL
- IP (24 h): 7.7 mg/dL
- K (24 h): 4.1 meq/L
- LDH (24 h): 62.6 IU/L
- Na (24 h): 143.8 meq/L
- PL (24 h): 171.2 mg/dL
- RALB (24 h): 2.7 g/dL
- TBIL (24 h): 0.05 mg/dL
- TC (24 h): 89.2 mg/dL
- TG (24 h): 112.8 mg/dL
- TP (24 h): 5.7 g/dL
- gamma-GTP (24 h): 1 IU/L
